Data as given in the supplement of paper PMC11061612.

Columns and labels:
[1] = test system: LNZTA3WT4 (Low Grade Glioma); test: combination Emax (second highest fraction inhibited in the dose matrix, 72 h); higher = more inhibition; extreme values may be limits of the assay
Summary of the method: (§1)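 Cell lines grown in DMEM/F12 or RPMI with 10% FBS were plated in 1536-well plates and held 24 hours at 37°C, 5% CO2 before 72 hours of exposure to two-drug dose matrices, with DMSO typically at 0.2%. CellTiter-Glo 2.0 luminescence gave viability, which was converted to inhibition. Vehicle wells were set to 0 and blank wells to 1. Combination Emax is the second-highest inhibition in the matrix, and Bliss excess is the observed combination effect minus the expected EA + EB − EA·EB, where EA and EB are the single-agent effects.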

LOXIMVI (Melanoma) [2] = test: as above
Summary of the method: as §1

[3] = test system: KYAE-1 (Esophageal Adenocarcinoma); test: as above
Summary of the method: as §1

A673 (Ewing's Sarcoma) [4] = test: as above
Summary of the method: as §1

KS-1 (Glioblastoma) [5] = test: as above
Summary of the method: as §1

[6] = test system: HH (T-Cell Non-Hodgkin's Lymphoma); test: as above
Summary of the method: as §1

[7] = test system: SW1710 (Bladder Carcinoma); test: as above
Summary of the method: as §1

[8] = test system: YAPC (Pancreatic Carcinoma); test: as above
Summary of the method: as §1

[9] = test system: SAS (Oral Cavity Carcinoma); test: as above
Summary of the method: as §1

[10] = test system: TGBC1TKB (Biliary Tract Carcinoma); test: as above
Summary of the method: as §1

EW-11 (Ewing's Sarcoma) [11] = test: as above
Summary of the method: as §1

[12] = test system: WSU-NHL (B-Cell Non-Hodgkin's Lymphoma); test: as above
Summary of the method: as §1

[13] = test system: SNU-449 (Hepatocellular Carcinoma); test: as above
Summary of the method: as §1

CAL-72 (Osteosarcoma) [14] = test: as above
Summary of the method: as §1

[15] = test system: OVCAR-5 (Ovarian Carcinoma); test: as above
Summary of the method: as §1

[16] = test system: ESS-1 (Other Solid Carcinomas); test: as above
Summary of the method: as §1

GAMG (Glioblastoma) [17] = test: as above
Summary of the method: as §1

[18] = test system: NCI-H524 (Small Cell Lung Carcinoma); test: as above
Summary of the method: as §1

[19] = test system: BE-13 (T-Lymphoblastic Leukemia); test: as above
Summary of the method: as §1

[20] = test system: SNU-16 (Gastric Carcinoma); test: as above
Summary of the method: as §1

MPP-89 (Mesothelioma) [21] = test: as above
Summary of the method: as §1

[22] = test system: HuCCT1 (Biliary Tract Carcinoma); test: as above
Summary of the method: as §1

[23] = test system: LNZTA3WT4 (Low Grade Glioma); test: Bliss excess, mean over the matrix (fraction); higher = more synergy
Summary of the method: as §1

LOXIMVI (Melanoma) [24] = test: as above
Summary of the method: as §1

[25] = test system: KYAE-1 (Esophageal Adenocarcinoma); test: as above
Summary of the method: as §1

A673 (Ewing's Sarcoma) [26] = test: as above
Summary of the method: as §1

KS-1 (Glioblastoma) [27] = test: as above
Summary of the method: as §1

[28] = test system: HH (T-Cell Non-Hodgkin's Lymphoma); test: as above
Summary of the method: as §1

[29] = test system: SW1710 (Bladder Carcinoma); test: as above
Summary of the method: as §1

[30] = test system: YAPC (Pancreatic Carcinoma); test: as above
Summary of the method: as §1

[31] = test system: SAS (Oral Cavity Carcinoma); test: as above
Summary of the method: as §1

[32] = test system: TGBC1TKB (Biliary Tract Carcinoma); test: as above
Summary of the method: as §1

EW-11 (Ewing's Sarcoma) [33] = test: as above
Summary of the method: as §1

[34] = test system: WSU-NHL (B-Cell Non-Hodgkin's Lymphoma); test: as above
Summary of the method: as §1

[35] = test system: SNU-449 (Hepatocellular Carcinoma); test: as above
Summary of the method: as §1

CAL-72 (Osteosarcoma) [36] = test: as above
Summary of the method: as §1

[37] = test system: OVCAR-5 (Ovarian Carcinoma); test: as above
Summary of the method: as §1

[38] = test system: ESS-1 (Other Solid Carcinomas); test: as above
Summary of the method: as §1

GAMG (Glioblastoma) [39] = test: as above
Summary of the method: as §1

[40] = test system: NCI-H524 (Small Cell Lung Carcinoma); test: as above
Summary of the method: as §1

[41] = test system: BE-13 (T-Lymphoblastic Leukemia); test: as above
Summary of the method: as §1

[42] = test system: SNU-16 (Gastric Carcinoma); test: as above
Summary of the method: as §1

MPP-89 (Mesothelioma) [43] = test: as above
Summary of the method: as §1

[44] = test system: HuCCT1 (Biliary Tract Carcinoma); test: as above
Summary of the method: as §1

[45] = test system: LS-123 (Colorectal Carcinoma); test: combination Emax (second highest fraction inhibited in the dose matrix, 72 h); higher = more inhibition; extreme values may be limits of the assay
Summary of the method: as §1

[46] = test system: LS-123 (Colorectal Carcinoma); test: Bliss excess, mean over the matrix (fraction); higher = more synergy
Summary of the method: as §1
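For Bliss excess, mean over the matrix in this document: after 72 h of two-drug dosing.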

CN(CCO)CC[C@H](CSc1ccccc1)Nc1ccc(S(=O)(=O)NC(=O)c2ccc(N3CCC([C@@H](O)c4ccccc4-c4ccc(Cl)cc4)CC3)cc2)cc1S(=O)(=O)C(F)(F)F [AZD4320] + CS(=O)(=O)CCNCc1ccc(-c2ccc3ncnc(Nc4ccc(OCc5cccc(F)c5)c(Cl)c4)c3c2)o1 [Lapatinib] (first compound max 1 µM, 7x7, partner max 10 µM)
combination Emax [1]: 0.398 | combination Emax (LOXIMVI (Melanoma) [2]): 0.64 | combination Emax [3]: 0.97 | combination Emax (A673 (Ewing's Sarcoma) [4]): 0.973 | combination Emax (KS-1 (Glioblastoma) [5]): 0.475 | combination Emax [6]: 0.316 | combination Emax [7]: 0.553 | combination Emax [8]: 0.257 | combination Emax [9]: 0.525 | combination Emax [10]: 0.58 | combination Emax (EW-11 (Ewing's Sarcoma) [11]): 0.95 | combination Emax [12]: 0.945 | combination Emax [13]: 0.694 | combination Emax (CAL-72 (Osteosarcoma) [14]): 0.933 | combination Emax [15]: 0.896 | combination Emax [16]: 0.973 | combination Emax (GAMG (Glioblastoma) [17]): 0.951 | combination Emax [18]: 0.968 | combination Emax [19]: 1 | combination Emax [20]: 0.941 | combination Emax (MPP-89 (Mesothelioma) [21]): 0.746 | combination Emax [22]: 0.615 | Bliss excess [23]: 0.0677 | Bliss excess (LOXIMVI (Melanoma) [24]): 0.0113 | Bliss excess [25]: 0.0699 | Bliss excess (A673 (Ewing's Sarcoma) [26]): 0.0505 | Bliss excess (KS-1 (Glioblastoma) [27]): 0.0137 | Bliss excess [28]: 0.0112 | Bliss excess [29]: -0.0324 | Bliss excess [30]: -0.0148 | Bliss excess [31]: 0.0214 | Bliss excess [32]: 0.0019 | Bliss excess (EW-11 (Ewing's Sarcoma) [33]): 0.0342 | Bliss excess [34]: 0.0183 | Bliss excess [35]: 0.021 | Bliss excess (CAL-72 (Osteosarcoma) [36]): -0.0174 | Bliss excess [37]: -0.0031 | Bliss excess [38]: 0.0668 | Bliss excess (GAMG (Glioblastoma) [39]): 0.1 | Bliss excess [40]: 0.0798 | Bliss excess [41]: 0.0292 | Bliss excess [42]: 0.0399 | Bliss excess (MPP-89 (Mesothelioma) [43]): 0.0479 | Bliss excess [44]: -0.0052

CN(CCO)CC[C@H](CSc1ccccc1)Nc1ccc(S(=O)(=O)NC(=O)c2ccc(N3CCC([C@@H](O)c4ccccc4-c4ccc(Cl)cc4)CC3)cc2)cc1S(=O)(=O)C(F)(F)F [AZD4320] + Nc1ccn([C@@H]2O[C@H](CO)[C@@H](O)C2(F)F)c(=O)n1 [Gemcitabine] (first compound max 1 µM, 7x7, partner max 0.3 µM)
combination Emax [1]: 0.608 | combination Emax (LOXIMVI (Melanoma) [2]): 0.925 | combination Emax [3]: 0.32 | combination Emax (A673 (Ewing's Sarcoma) [4]): 0.995 | combination Emax (KS-1 (Glioblastoma) [5]): 0.304 | combination Emax [6]: 0.293 | combination Emax [7]: 0.51 | combination Emax [8]: 0.535 | combination Emax [9]: 0.983 | combination Emax [10]: 0.408 | combination Emax (EW-11 (Ewing's Sarcoma) [11]): 0.92 | combination Emax [12]: 0.995 | combination Emax [13]: 0.367 | combination Emax (CAL-72 (Osteosarcoma) [14]): 0.854 | combination Emax [15]: 0.633 | combination Emax [16]: 0.998 | combination Emax (GAMG (Glioblastoma) [17]): 0.889 | combination Emax [18]: 0.906 | combination Emax [19]: 1 | combination Emax [20]: 0.934 | combination Emax (MPP-89 (Mesothelioma) [21]): 0.78 | combination Emax [22]: 0.476 | Bliss excess [23]: -0.0125 | Bliss excess (LOXIMVI (Melanoma) [24]): 0.021 | Bliss excess [25]: 0.0074 | Bliss excess (A673 (Ewing's Sarcoma) [26]): 0.0335 | Bliss excess (KS-1 (Glioblastoma) [27]): -0.0337 | Bliss excess [28]: -0.0085 | Bliss excess [29]: -0.0401 | Bliss excess [30]: 0.011 | Bliss excess [31]: 0.0374 | Bliss excess [32]: -0.0139 | Bliss excess (EW-11 (Ewing's Sarcoma) [33]): 0.0215 | Bliss excess [34]: -0.0505 | Bliss excess [35]: -0.0558 | Bliss excess (CAL-72 (Osteosarcoma) [36]): 0.129 | Bliss excess [37]: -0.0486 | Bliss excess [38]: 0.0278 | Bliss excess (GAMG (Glioblastoma) [39]): 0.103 | Bliss excess [40]: -0.0216 | Bliss excess [41]: -0.0285 | Bliss excess [42]: 0.0538 | Bliss excess (MPP-89 (Mesothelioma) [43]): 0.0268 | Bliss excess [44]: -0.0245

C[C@@H](Oc1cc(-c2cnn(C3CCNCC3)c2)cnc1N)c1c(Cl)ccc(F)c1Cl [Crizotinib] + CC1=C(C(=CC=C1)Cl)NC(=O)C2=CN=C(S2)NC3=CC(=NC(=N3)C)N4CCN(CC4)CCO [Dasatinib] (first compound max 10 µM, 7x7, partner max 2 µM)
combination Emax [1]: 0.666 | combination Emax [45]: 0.967 | combination Emax (LOXIMVI (Melanoma) [2]): 0.972 | combination Emax [3]: 0.169 | combination Emax (A673 (Ewing's Sarcoma) [4]): 0.681 | combination Emax (KS-1 (Glioblastoma) [5]): 0.848 | combination Emax [6]: 0.203 | combination Emax [7]: 0.944 | combination Emax [8]: 0.694 | combination Emax [9]: 0.779 | combination Emax [10]: 0.707 | combination Emax (EW-11 (Ewing's Sarcoma) [11]): 0.788 | combination Emax [12]: 0.994 | combination Emax [13]: 0.831 | combination Emax (CAL-72 (Osteosarcoma) [14]): 0.79 | combination Emax [15]: 0.826 | combination Emax [16]: 0.987 | combination Emax (GAMG (Glioblastoma) [17]): 0.929 | combination Emax [18]: 0.977 | combination Emax [19]: 0.943 | combination Emax [20]: 0.909 | combination Emax (MPP-89 (Mesothelioma) [21]): 0.914 | combination Emax [22]: 0.82 | Bliss excess [23]: 0.0429 | Bliss excess [46]: 0.0166 | Bliss excess (LOXIMVI (Melanoma) [24]): 0.0145 | Bliss excess [25]: 0 | Bliss excess (A673 (Ewing's Sarcoma) [26]): -0.0281 | Bliss excess (KS-1 (Glioblastoma) [27]): 0.0499 | Bliss excess [28]: -0.0138 | Bliss excess [29]: 0.031 | Bliss excess [30]: 0.0219 | Bliss excess [31]: -0.0059 | Bliss excess [32]: 0.0435 | Bliss excess (EW-11 (Ewing's Sarcoma) [33]): -0.0571 | Bliss excess [34]: 0.0202 | Bliss excess [35]: 0.0569 | Bliss excess (CAL-72 (Osteosarcoma) [36]): 0.0078 | Bliss excess [37]: 0.0338 | Bliss excess [38]: 0.062 | Bliss excess (GAMG (Glioblastoma) [39]): 0.0164 | Bliss excess [40]: -0.0264 | Bliss excess [41]: 0.0321 | Bliss excess [42]: 0.0279 | Bliss excess (MPP-89 (Mesothelioma) [43]): 0.0389 | Bliss excess [44]: -0.0274
